Assay results: US9580430B2, “9H-pyrimido[4,5-B]indoles and related analogs as BET bromodomain inhibitors” (THE REGENTS OF THE UNIVERSITY OF MICHIGAN, priority 2014, dated 2017)

How the values were obtained:
[1] = system: VCaP prostate cancer cells; assay: Cell growth inhibition, VCaP prostate cancer cells (Cell-Titer GLO); type: cell-based; details: 8 days; FIG. 22
Experimental: For prostate cancer cell lines, VCaP prostate cancer cells were grown in DMEM with Glutamax (Gibco) supplemented with 10% FBS (Invitrogen) in 5% CO2 cell culture incubator. All cell lines were tested and found to be free of mycoplasma contamination. Cells were seeded in 96-well plates at 2,000-10,000 cells per well (optimum density for growth) in a total volume of […] media containing 10% FBS. Serially diluted compounds in […] media were added to the cells 12 h later. […] The values were normalized and IC50 was calculated using GraphPad Prism software.
Cells were seeded in 96-well plates at 2000-10,000 cells/well (optimum density for growth) in a total volume of 100 μl media containing 10% FBS. Serially diluted compounds in 100 μl media were added to the cells 12 h later. Following 96 h. incubation, cell viability was assessed by Cell-Titer GLO (Promega). The values were normalized and IC50 was calculated using GraphPad Prism software. […] After 12 days cells were fixed with methanol, stained with crystal violet and photographed. For colorimetric assays, the stained wells were treated with 500 μl 10% acetic acid and the absorbance was measured at 560 nm using a spectrophotometer.

[2] = system: AR; assay: ChIP-seq of AR in DHT-stimulated VCaP cells; type: cell-based; details: DHT 10 nM plus JQ1 500 nM, MDV3100 10 μM or Bicalutamide 25 μM, FIG. 17
Experimental: The ChIP assays for BRD2, BRD3, BRD4, AR, RNA PolII, ERG and H3K27ac were performed using HighCell ChIP kit (Diagenode) according to manufacturer's protocol. […] Next, cells were cross-linked for 10 min. with 1% formaldehyde. […] Chromatin equivalent to 5×10^6 cells were used for ChIP using different antibodies. ChIP DNA was isolated (IPure Kit, Diagenode) from samples by incubation with the antibody at 4° C. overnight followed by wash and reversal of cross-linking. The ChIP-seq sample preparation for sequencing was performed according to the manufacturer's instructions (Illumina). […] A single A-base was added to fragment ends by Klenow fragment (3′ to 5′ exo minus; NEB) followed by ligation of Illumina adaptors (Quick ligase, NEB). The adaptor-modified DNA fragments were enriched by PCR using the Illumina Barcode primers and Phusion DNA polymerase (NEB). PCR products were size selected using 3% NuSieve agarose gels (Lonza) followed by gel extraction using QIAEX II reagents (QIAGEN). Libraries were quantified with the Bioanalyzer 2100 (Agilent) and sequenced on the Illumina HiSeq 2000 Sequencer (100 nucleotide read length).
For enrichment plots shown in FIGS. 17, 19 and 20, identified peaks for each sample are centered by peak summit and average coverage per million was counted within 1500 bp relative to the peak center.

[3] = system: VCaP tumor xenograft
Experimental: (§1) Four week-old male SCID C.B17 mice were procured from a breeding colony at University of Michigan. All procedures involving mice were approved by the University Committee on Use and Care of Animals (UCUCA) at the University of Michigan and conform to all regulatory standards. Mice were anesthetized using 2% Isoflurane (inhalation) and 2×10^6 VCaP prostate cancer cells suspended in 100 μl of PBS with 50% Matrigel (BD Biosciences) were implanted subcutaneously into the dorsal flank on both sides of the mice. […] Growth in tumor volume was recorded using digital calipers and tumor volumes were estimated using the formula (π/6) (L×W^2), where L=length of tumor and W=width. Loss of body weight during the course of the study was also monitored. At the end of the studies mice were sacrificed and tumors extracted and weighed. Additionally, femur bone marrow, liver and spleen were harvested to examine spontaneous metastasis by detecting human-Alu sequence. […] All procedures involving mice were approved by the University Committee on Use and Care of Animals (UCUCA) at the University of Michigan and conform to all regulatory standards.

[4] = system: VCaP xenograft model; assay: Spontaneous metastasis in the VCaP xenograft model (human Alu qPCR); type: in vivo, mice; details: femur, liver and spleen; JQ1 50 mg/kg, MDV3100 10 mg/kg
Experimental: as §1

CNC(=O)c1ccc(N2C(=S)N(c3ccc(C#N)c(C(F)(F)F)c3)C(=O)C2(C)C)cc1F [MDV3100, enzalutamide]
VCaP cell viability in vitro [1]: Marginal cell death
recruitment of AR to target loci [2]: markedly attenuated
tumor volume/weight ([3]; VCaP tumor-bearing mice, JQ1 50 mg/kg, MDV3100 10 mg/kg, 5 days/week, FIGS. 23-25): less pronounced effect
tolerability ([3]; mouse, in vivo): well tolerated
spontaneous metastasis [4]: evidence of metastases in femur and liver
